Assay [1] relates to Mus musculus. In words: Compound was tested for analgesia in mouse writhing assay by subcutaneous administration. Type of assay: functional. Conditions: Mus musculus, sc; read-out: ED50.
For assay [2], the system named is Rattus norvegicus. As to the kind of experiment: Compound was tested for antagonist in rat tail flick assay by subcutaneous administration at dose 29 umol/kg; IA means inactive. Type of assay: functional, organism-based.
Assay [3] concerns Mus musculus. In words: Compound was tested for analgesia in mouse writhing assay by subcutaneous administration short duration at 5 min. Conditions: sc. Type of assay: functional.
Assay [4] concerns Rattus norvegicus. In words: Antagonist activity in rat tail flick assay by intraperitoneal administration. Type of assay: functional.
Assay [5] is filed under the species Rattus norvegicus. As to the kind of experiment: Ratio of agonist potency to antagonist potency was determined. Type of assay: functional.
Assay [6] concerns Rattus norvegicus. In words: Compound was tested for antagonist in rat tail flick assay by subcutaneous administration at dose 27 umol/kg; IA means inactive. Type of assay: functional, organism-based.
Assay [7] has as its system Rattus norvegicus. As to the kind of experiment: Compound was tested for antagonist in rat tail flick assay by intraperitoneal administration at dose 25 umol/kg; IA means inactive. Type of assay: functional, organism-based.
Assay [8] has as its system Rattus norvegicus. As to the kind of experiment: Compound was tested for antagonist in rat tail flick assay by subcutaneous administration at dose 33 umol/kg; IA means inactive. Type of assay: functional, organism-based.
Assay [9] deals with Mus musculus. In words: Compound was tested for analgesia in mouse writhing assay by subcutaneous administration; IA means inactive. Type of assay: functional, organism-based.

Calls of active or inactive are those of the source. The rule behind the calls is not given here.

`COc1ccc2c(c1)C13CCN(C)C(C2)[C@H]1[C@H](C)[C@@H](C)C(=O)C3` (stereo partly specified): the ED50 in [1] was 3.72 µmol/kg. The ED50 entry in assay [2] was “inactive”.
With `C[C@@H]1C[C@@H]2C3Cc4ccc(O)cc4C2(CCN3CC2CC2)CC1=O` (stereo in doubt; 12T a), the ED50 in assay [3] turned out to be 1.77 µmol/kg; in [4], 1.18 µM/kg. For the same molecule, in assay [5], the Ratio came out at 1.5.
As for `CC[C@@H]1[C@@H](C)C(=O)CC23CCN(C)C(Cc4ccc(OC)cc42)[C@@H]13` (stereo partly specified), in assay [1], the ED50 amounted to 7.42 µmol/kg. In addition, the ED50 entry in assay [6] was “inactive”.
`COc1ccc2c(c1)C13CCN(CC4CCC4)C(C2)[C@@H]1C[C@H](C)C(=O)C3` (stereo partly specified): the ED50 result in [7] was “inactive”.
With `C[C@H]1C[C@H]2C3Cc4ccc(O)cc4C2(CCN3CC2CCC2)CC1=O` (stereo in doubt; 13C), the ED50 result in [7] is “inactive”.
As to `COc1ccc2c(c1)C13CCN(C)C(C2)[C@H]1C[C@@H](C)C(=O)C3` (stereo in doubt; 6T a), in assay [8], the ED50 entry is “inactive”.
For the molecule `C=CCN1CC[C@]23c4c5ccc(O)c4O[C@H]2C(=O)CC[C@@]3(O)[C@H]1C5` [NALOXONE], in [9], the ED50 result is “inactive”.

Values taken from ChEMBL document CHEMBL1121374, “Analgesic narcotic antagonists. 4. 7-Methyl-N-(cycloalkylmethyl)-3-hydroxymorphinan-6-ones and -isomorphinan-6-ones” (1980).
